Reference: patent publication US9145414B2, “1,2,4-triazine-6-carboxamide derivative” (TAIHO PHARMACEUTICAL CO., LTD., priority 2011, dated 2015)
Like-named read-outs stand apart in the source and are kept apart here.

What was measured:
[1] = molecular target: recombinant human KDR protein (Homo sapiens (Human), UniProt P35968); experiment: KDR kinase activity inhibitory effect; type: biochemical; settings: for KDR inhibitory activity: Selectivity for Syk: KDR IC50 relative to Syk IC50; for IC50: Table 97
Protocol: The purified recombinant human KDR protein used in the test is a house purified product. […] The mixture was incubated at 30° C. for 180 minutes to perform kinase reaction. […] Their respective amounts were measured, and the rate of phosphorylation reaction was then determined from the ratio between the amounts.

[2] = tested on: recombinant human Aurora B protein; experiment: Aurora B kinase activity inhibitory effect; type: biochemical; settings: Aurora B IC50 relative to Syk IC50
Protocol: (§1) The reaction solution was left standing in the dark at room temperature for 120 minutes. Then, fluorescence polarization values obtained by measurement using PHERAstar (BMG LABTECH JAPAN Ltd., excitation wavelength: 485 nm, detection wavelength: 520 nm) were used to determine the rate of phosphorylation reaction.

[3] = molecular target: recombinant human Aurora B protein (Homo sapiens (Human), UniProt Q96GD4); experiment: Aurora B kinase activity inhibitory effect; type: biochemical; settings: Table 97; read-out: AuroraB inhibitory activity IC50
Protocol: as §1

[4] = tested on: SU-DHL-6 cells (diffuse large-cell lymphoma cell line); experiment: Cell growth inhibition test; type: cell-based; settings: Homo sapiens, 72 h; SU-DHL-6 cells, 3 days culture, Table 96; read-out: Cell growth inhibition IC50
Protocol: The compound of the present invention was serially diluted with dimethyl sulfoxide and then added to an RPMI1640 medium containing 10% FBS. Each resulting solution was added at a concentration of 100 μl/well to the preceding SU-DHL-6 cell culture plate (final concentration of the compound: 10, 3, 1, 0.3, 0.1, 0.03, 0.01, and 0.003 μM). The cells were cultured at 37° C. for 3 days in an incubator containing 5% CO2. The cells thus cultured were left at room temperature for 30 minutes and then centrifuged at 1500 rpm for 3 minutes using a centrifuge (Hitachi Koki Co., Ltd., Himac CF7D2). A 100 μl aliquot of the supernatant was removed from each well to allow 100 μl of the cell culture solution to remain therein. This 100 μl of the remaining cell culture solution was supplemented with an equal amount of CellTiter-Glo Luminescent Cell Viability Assay (Promega KK, Cat#: G7573), and the mixture was then shaken for 1 minute using a plate mixer. The reaction solution was left in the dark for 10 minutes. Then, luminescence intensity derived from live cells of each well was measured using a microplate reader (PerkinElmer Inc., ARVOsx). […] Likewise, the IC50 values (μM) of the control compounds were also calculated and then compared with that of the compound of the present invention. Rate of cell growth inhibition(%)=(C−T)/C×100 T: luminescence intensity (count per second) of a well supplemented with the test compound C: luminescence intensity (count per second) of a well non-supplemented with the test compound

human Syk protein = human Syk protein (Homo sapiens (Human), UniProt P43405); experiment: Syk kinase inhibition test; type: biochemical; settings: read-out: SYK inhibitory activity IC50
Protocol: Finally, phosphorylated peptides and non-phosphorylated peptides were separated therebetween using LabChip™ 3000 system (Caliper Life Sciences, Inc., excitation wavelength: 488 nm, detection wavelength: 530 nm). Their respective amounts were measured, and the rate of phosphorylation reaction was then determined from the ratio between the amounts. The concentration at which the compound can inhibit 50% phosphorylation reaction is defined as an IC50 value (μM).
Also, known 1,2,4-triazine-6-carboxamide derivatives A, B, and C (WO2000/075113 (A: compound No. 121 and B: compound No. 154) and WO2000/076980 (C: compound No. 39)) were synthesized as control compounds. Their IC50 values (μM) were calculated in the same way as above and then compared with that of the compound of the present invention.

Sequence of recombinant human KDR protein (P35968 20-1356): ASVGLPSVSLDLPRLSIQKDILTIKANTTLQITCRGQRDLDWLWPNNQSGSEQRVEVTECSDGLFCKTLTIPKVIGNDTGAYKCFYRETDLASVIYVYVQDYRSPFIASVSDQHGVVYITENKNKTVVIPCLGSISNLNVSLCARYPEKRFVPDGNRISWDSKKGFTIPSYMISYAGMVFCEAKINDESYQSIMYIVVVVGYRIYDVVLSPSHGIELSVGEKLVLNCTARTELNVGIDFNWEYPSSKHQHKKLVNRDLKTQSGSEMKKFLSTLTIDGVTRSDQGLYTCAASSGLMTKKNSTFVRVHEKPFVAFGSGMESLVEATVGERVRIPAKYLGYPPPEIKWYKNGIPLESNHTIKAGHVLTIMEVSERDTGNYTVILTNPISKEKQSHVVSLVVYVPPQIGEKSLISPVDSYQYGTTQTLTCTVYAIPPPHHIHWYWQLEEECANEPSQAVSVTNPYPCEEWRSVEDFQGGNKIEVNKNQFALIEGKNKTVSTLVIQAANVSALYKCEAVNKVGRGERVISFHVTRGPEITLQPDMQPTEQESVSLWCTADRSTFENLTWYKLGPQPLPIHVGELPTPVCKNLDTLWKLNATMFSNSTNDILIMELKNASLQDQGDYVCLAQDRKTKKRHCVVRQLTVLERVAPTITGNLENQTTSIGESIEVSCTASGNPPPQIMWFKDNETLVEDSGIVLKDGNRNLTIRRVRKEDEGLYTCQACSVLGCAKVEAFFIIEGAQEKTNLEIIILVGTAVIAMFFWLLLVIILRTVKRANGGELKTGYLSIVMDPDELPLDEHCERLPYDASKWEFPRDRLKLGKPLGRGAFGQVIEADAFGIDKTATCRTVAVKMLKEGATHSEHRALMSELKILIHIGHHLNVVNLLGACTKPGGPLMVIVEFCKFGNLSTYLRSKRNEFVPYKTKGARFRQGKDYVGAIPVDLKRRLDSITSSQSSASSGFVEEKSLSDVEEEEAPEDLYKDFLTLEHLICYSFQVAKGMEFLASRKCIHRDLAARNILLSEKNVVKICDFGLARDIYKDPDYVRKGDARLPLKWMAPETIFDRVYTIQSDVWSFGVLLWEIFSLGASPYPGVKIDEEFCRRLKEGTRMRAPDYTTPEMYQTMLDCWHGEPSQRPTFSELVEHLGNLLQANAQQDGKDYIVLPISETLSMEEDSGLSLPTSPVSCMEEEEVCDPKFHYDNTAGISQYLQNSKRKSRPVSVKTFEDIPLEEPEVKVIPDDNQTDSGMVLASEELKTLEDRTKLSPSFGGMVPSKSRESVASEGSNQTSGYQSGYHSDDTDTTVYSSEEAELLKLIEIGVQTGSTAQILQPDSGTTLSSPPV
Sequence of recombinant human Aurora B protein (Homo sapiens (Human), UniProt Q96GD4) (Q96GD4 whole entry): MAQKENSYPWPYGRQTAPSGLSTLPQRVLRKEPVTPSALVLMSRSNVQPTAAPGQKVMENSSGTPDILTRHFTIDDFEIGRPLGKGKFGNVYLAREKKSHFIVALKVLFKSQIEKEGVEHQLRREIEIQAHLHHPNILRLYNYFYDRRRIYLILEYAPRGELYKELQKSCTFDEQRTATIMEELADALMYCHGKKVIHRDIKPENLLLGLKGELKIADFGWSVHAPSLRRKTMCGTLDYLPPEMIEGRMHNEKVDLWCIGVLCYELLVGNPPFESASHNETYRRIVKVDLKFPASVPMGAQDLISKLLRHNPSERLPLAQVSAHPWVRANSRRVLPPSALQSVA

| KDR inhibitory activity: Selectivity for Syk [1] | IC50 [1] [nM] | AuroraB inhibitory activity: Selectivity for Syk [2] | IC50 [3] [nM] | IC50 [4] [nM] | IC50 (human Syk protein; Table 95) [nM] | IC50 (human Syk protein; Table 97) [nM] | Structure (SMILES) |
| --- | --- | --- | --- | --- | --- | --- | --- |
| (>20000 times) | > 10000 | (>20000 times) | > 10000 | 152 | 0.53 | 0.53 | NC(=O)c1nnc(N[C@@H]2CCCC[C@@H]2N)nc1Nc1ccc2cn(C(F)F)nc2c1 [Example 24, 3-((1R,2S)-2-aminocyclohexylamino)-5-(2-(difluoromethyl)-2H-indazol-6-ylamino)-1,2,4-triazine-6-carboxamide] |
| (4400 times) | 1400 | (4100 times) | 1300 | 165 | 0.38 | 0.38 | NC(=O)c1nnc(N[C@@H]2CCOC[C@@H]2N)nc1Nc1cccc2c1ccn2C1CC1 [Example 160] |
| (>7000 times) | > 2000 | (1500 times) | 420 | 27 | 0.28 | 0.28 | NC(=O)c1nnc(N[C@@H]2CCCC[C@@H]2N)nc1Nc1cc2ccccc2s1 [Example 161] |
